Experimental data: US20220213061A9, “HETEROCYCLIC COMPOUNDS FOR MODULATING NR2F6” (TES Pharma S.r.l., priority 2020, published 2022)
Where a name gives a salt, the structure may show the parent alone.

target: T1, recombinant human NR2F6 protein (Homo sapiens, UniProt P10588); experiment: Biochemical NR2F6 binding assay (EnSpire label-free); conditions: label-free binding to immobilized purified recombinant human NR2F6; ligands 1 nM to 100 uM, 1% DMSO
T1 sequence (P10588 1-404): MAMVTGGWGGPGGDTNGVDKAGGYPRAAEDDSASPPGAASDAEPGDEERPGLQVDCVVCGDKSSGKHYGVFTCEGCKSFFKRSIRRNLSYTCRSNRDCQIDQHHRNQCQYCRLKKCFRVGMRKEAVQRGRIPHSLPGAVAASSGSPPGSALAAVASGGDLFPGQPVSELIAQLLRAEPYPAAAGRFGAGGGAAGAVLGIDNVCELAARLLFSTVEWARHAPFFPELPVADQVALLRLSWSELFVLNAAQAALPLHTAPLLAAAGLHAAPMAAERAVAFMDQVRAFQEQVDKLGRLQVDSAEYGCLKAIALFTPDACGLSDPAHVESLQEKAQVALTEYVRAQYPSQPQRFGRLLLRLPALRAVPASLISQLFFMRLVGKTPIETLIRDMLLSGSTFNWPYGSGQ
Protocol: Purified recombinant human NR2F6 protein was dissolved in immobilization buffer at pH 4.5 and then immobilized in EnSpire-LFB High-Sensitivity User-Activated Plates at the concentration of 50 μg/well plate and left in incubation for 16 h at 4° C. Wells with only immobilization buffer were used as negative control to check the protein coating efficiency. NR2F6 ligands were resuspended in DMSO at the concentration of 10 mM, then dispensed into a plate containing assay buffer at concentrations ranging from 1 nM to 100 uM using an HP-dispenser. DMSO was normalized at the 1% of volume of each well. The final readings were taken over a period of 30 minutes. The label-free responses were measured as shifts in reflected wavelength and are expressed in picometers (pm). Results were analyzed using the EnSpire label-free user interface software, and EC50 and graphs were generated using GraphPad PRISM software. In the tables below, A is <1 μM; B is 1 to 10 μM; C is 10 to 50 μM; and D is >50 μM.

SMILES	EC50 [µM]
S=C(Nc1cccc2cnccc12)O[C@@H]1CNC[C@H]1c1ccccc1 (racemic) [Compound I-2, (±)-trans-O-(4-Phenylpyrrolidin-3-yl) isoquinolin-5-ylcarbamothioate]	1 to 10
S=C(Nc1cccc2cnccc12)O[C@@H]1CNC[C@@H]1c1ccccc1 (racemic) [Compound I-3, (±)-cis-O-(4-Phenylpyrrolidin-3-yl) isoquinolin-5-ylcarbamothioate]	10 to 50
O=C(Nc1cccc2cnccc12)O[C@@H]1CNC[C@H]1c1ccccc1 (racemic) [Compound I-4, (±)-trans-4-Phenylpyrrolidin-3-yl isoquinolin-5-ylcarbamate]	1 to 10
c1ccc([C@@H]2CNC[C@H]2Oc2nc(-c3cccnc3)cs2)cc1 (racemic) [Compound I-5, (±)-trans-3-{2-[(4-Phenylpyrrolidin-3-yl)oxy]-1,3-thiazol-4-yl}pyridine]	1 to 10
O=C(N[C@@H]1CNC[C@H]1c1ccccc1)c1cccc2cnccc12 (racemic) [Compound I-9, (±)-trans-N-(4-Phenylpyrrolidin-3-yl)isoquinoline-5-carboxamide]	1 to 10
O=C(Nc1nccc2ccccc12)[C@@H]1CNC[C@H]1c1ccccc1 (racemic) [Compound I-12, (±)-trans-N-(Isoquinolin-1-yl)-4-phenylpyrrolidine-3-carboxamide dihydrochloride]	> 50
O=C(Nc1cccc(-c2ccccc2)c1)[C@@H]1CNC[C@H]1c1ccccc1 (racemic) [Compound I-13, (±)-trans-N-(Biphenyl-3-yl)-4-phenylpyrrolidine-3-carboxamide]	1 to 10
O=C(Nc1cccc2ncccc12)[C@@H]1CNC[C@H]1c1ccccc1 (racemic) [Compound I-17, (±)-trans-4-Phenyl-N-(quinolin-5-yl)pyrrolidine-3-carboxamide dihydrochloride]	10 to 50
O=C(Nc1ncc(-c2cccnc2)s1)[C@@H]1CNC[C@H]1c1ccccc1 (racemic) [Compound I-20, (±)-trans-4-Phenyl-N-[5-(pyridin-3-yl)-1,3-thiazol-2-yl]pyrrolidine-3-carboxamide]	1 to 10
O=C(Nc1cccc(-c2ccccc2)c1)[C@@H]1CNC[C@H]1c1ccc(F)cc1 (racemic) [Compound I-23, (±)-trans-N-(Biphenyl-3-yl)-4-(4-fluorophenyl)pyrrolidine-3-carboxamide hydrochloride]	1 to 10
O=C(Nc1ccc(-c2ccccc2)cc1)[C@@H]1CNC[C@H]1c1ccccc1 (racemic) [Compound I-24, (±)-trans-N-(Biphenyl-4-yl)-4-phenylpyrrolidine-3-carboxamide hydrochloride]	1 to 10
O=C(Nc1ccc(-c2cccnc2)cc1)[C@@H]1CNC[C@H]1c1ccccc1 (racemic) [Compound I-25, (±)-trans-4-Phenyl-N-[4-(pyridin-3-yl)phenyl]pyrrolidine-3-carboxamide dihydrochloride]	1 to 10
COc1ccc([C@@H]2CNC[C@H]2C(=O)Nc2cccc(-c3ccccc3)c2)cc1 (racemic) [Compound I-45, (±)-trans-N-(Biphenyl-3-yl)-4-(4-methoxyphenyl)pyrrolidine-3-carboxamide hydrochloride]	> 50
CN(C(=O)[C@@H]1CNC[C@H]1c1ccccc1)c1cccc(-c2cccnc2)c1 (racemic) [Compound I-47, (±)-trans-N-Methyl-4-phenyl-N-[3-(pyridin-3-yl)phenyl]pyrrolidine-3-carboxamide]	> 50
O=C(Nc1cccc(-c2cccnc2)c1)[C@@H]1CNC[C@H]1C1CCOCC1 (racemic) [Compound I-50, (±)-trans-N-[3-(Pyridin-3-yl)phenyl]-4-(tetrahydro-2H-pyran-4-yl)pyrrolidine-3-carboxamide dihydrochloride]	> 50
O=C(Nc1cccc(Oc2cccnc2)c1)[C@@H]1CNC[C@H]1c1ccccc1 (racemic) [Compound I-52, dihydrochloride]	> 50

More lines, now with the values ahead:

EC50 [µM]	SMILES
1 to 10	S=C(Nc1cccc2cnccc12)N[C@@H]1CN(Cc2ccccc2)C[C@H]1c1ccccc1 (racemic) [Compound I-6, (±)-trans-1-Isoquinolin-5-yl-3-(1-benzyl-4-phenylpyrrolidin-3-yl)thiourea]
1 to 10	S=C(Nc1cccc2cnccc12)N[C@@H]1CNC[C@H]1c1ccccc1 (racemic) [Compound I-7, (±)-trans-1-Isoquinolin-5-yl-3-(4-phenylpyrrolidin-3-yl)thiourea]
> 50	O=S(=O)(N[C@@H]1CNC[C@H]1c1ccccc1)c1cccc2cnccc12 (racemic) [Compound I-8, (±)-trans-N-(4-Phenylpyrrolidin-3-yl)isoquinoline-5-sulfonamide]
> 50	c1ccc([C@H]2CNC[C@@H]2Nc2nc3cnccc3s2)cc1 (racemic) [Compound I-10, (±)-trans-N-[4-Phenylpyrrolidin-3-yl][1,3]thiazolo[4,5-c]pyridin-2-amine hydrochloride]
1 to 10	O=C(Nc1cccc(-c2cccnc2)c1)[C@@H]1CNC[C@H]1c1ccccc1 (racemic) [Compound I-11, (±)-trans-4-Phenyl-N-[3-(pyridin-3-yl)phenyl]pyrrolidine-3-carboxamide]
1 to 10	O=C(Nc1cc2ccccc2cn1)[C@@H]1CNC[C@H]1c1ccccc1 (racemic) [Compound I-14, (±)-trans-N-(Isoquinolin-3-yl)-4-phenylpyrrolidine-3-carboxamide dihydrochloride]
1 to 10	Cc1cc2c(NC(=O)[C@@H]3CNC[C@H]3c3ccccc3)cccc2cn1 (racemic) [Compound I-15, (±)-trans-N-(3-Methylisoquinolin-5-yl)-4-phenylpyrrolidine-3-carboxamide dihydrochloride]
1 to 10	O=C(Nc1cccc2ccccc12)[C@@H]1CNC[C@H]1c1ccccc1 (racemic) [Compound I-16, (±)-trans-N-(Naphthalen-1-yl)-4-phenylpyrrolidine-3-carboxamide hydrochloride]
10 to 50	O=C(Nc1cccc2cccnc12)[C@@H]1CNC[C@H]1c1ccccc1 (racemic) [Compound I-18, (±)-trans-4-Phenyl-N-(quinolin-8-yl)pyrrolidine-3-carboxamide dihydrochloride]
> 50	O=C(Nc1cccnc1)[C@H]1CNC[C@@H]1c1ccccc1 (racemic) [Compound I-19, (±)-trans-4-Phenyl-N-(pyridin-3-yl)pyrrolidine-3-carboxamide dihydrochloride]
1 to 10	O=C(Nc1cccc2cnccc12)[C@@H]1CNC[C@H]1c1ccccc1 (racemic) [Compound I-21, (±)-trans-N-(Isoquinolin-5-yl)-4-phenylpyrrolidine-3-carboxamide dihydrochloride]
< 1	O=C(Nc1cccc(-c2ccccc2)c1)[C@@H]1CNC[C@H]1c1cccs1 (racemic) [Compound I-22, (±)-trans-N-(Biphenyl-3-yl)-4-(thiophen-2-yl)pyrrolidine-3-carboxamide hydrochloride]
1 to 10	O=C(Nc1cccc(-c2ccc(F)nc2)c1)[C@@H]1CNC[C@H]1c1ccccc1 (racemic) [Compound I-26, (±)-trans-N-[3-(6-Fluoropyridin-3-yl)phenyl]-4-phenylpyrrolidine-3-carboxamide]
> 50	O=C(Nc1cccc(-c2ccccc2)c1)[C@@H]1CNC[C@H]1c1cccc(F)c1 (racemic) [Compound I-27, (±)-trans-N-(Biphenyl-3-yl)-4-(3-fluorophenyl)pyrrolidine-3-carboxamide hydrochloride]
> 50	O=C(Nc1cccc(-c2ccccc2)c1)[C@@H]1CNC[C@H]1c1ccccc1F (racemic) [Compound I-28, (±)-trans-4-(2-Fluorophenyl)-pyrrolidine-3-carboxylic acid biphenyl-3-ylamide hydrochloride]
> 50	CN1C[C@@H](C(=O)Nc2cccc(-c3cccnc3)c2)[C@H](c2ccccc2)C1 (racemic) [Compound I-46, (±)-trans-1-Methyl-4-phenyl-N-[3-(pyridin-3-yl)phenyl]pyrrolidine-3-carboxamide]
> 50	O=C([C@@H]1CNC[C@H]1c1ccccc1)N1CC(c2cccnc2)C1 (racemic) [Compound I-48, (±)-trans-(4-Phenylpyrrolidin-3-yl)[3-(pyridin-3-yl)azetidin-1-yl]methanone dihydrochloride]
> 50	O=C(Nc1cccc(-c2cccnc2)c1)[C@@H]1CNC[C@H]1c1cccs1 (racemic) [Compound I-49, (±)-trans-N-[3-(Pyridin-3-yl)phenyl]-4-(thiophen-2-yl)pyrrolidine-3-carboxamide dihydrochloride]
> 50	O=C(Nc1cccc(-c2cncnc2)c1)[C@@H]1CNC[C@H]1c1ccccc1 (racemic) [Compound I-53, (±)-trans-4-Phenyl-N-[3-(pyrimidin-5-yl)phenyl]pyrrolidine-3-carboxamide trihydrochloride]
